From patent publication US11279735B2, “Cyclic peptide antibiotics” (priority 2017, dated 2022)
In brackets after ≈: the same amount, converted by molar mass. Like-named read-outs stand apart in the source and are kept apart here. *1 amine or outer side, *2 acyl side, *3 side chain or, on linkers, in order; H or OH if unused. Where a SMILES comes first, the peptide text is derived from it. [ ]: non-standard residue; d: D form. The star is where a group is joined. X13 = C[C@H](CO[C@H](CC1CC2(CCC2)C1)[C@@H](C)C(=O)[*:2])N[*:1]; X1 = CCCCCC[C@@H](C(=O)[*:2])[C@@H](C)OC[C@@H](C)N[*:1]; X2 = CCCCCC[C@@H](OC[C@@H](C)N[*:1])[C@@H](C)C(=O)[*:2]; X9 = CCCCCC(C)[C@@H](OC[C@@H](C)N[*:1])C(C)C(=O)[*:2]; Cyclobutyl(trans-3-NH2) = N[C@H]1C[C@H](*)C1; Gly(cHept) = N[C@H](C(=O)O)C1CCCCCC1; aThr = C[C@H](O)[C@H](N)C(=O)O; NMeL = CN[C@@H](CC(C)C)C(=O)O; Chg = N[C@H](C(=O)O)C1CCCCC1; NMeNva = CCC[C@H](NC)C(=O)O; X8 = NC[C@H]1C[C@H](*)C1; Dap = NC[C@H](N)C(=O)O; Propyl(3-NH2) = NCCC*; X24 = NC[C@H](F)C*; X3 = NC[C@@H](F)C*; X22 = C1CC(*)CCN1; X10 = NCCCC*

Test system: Escherichia coli (E. coli) strain CFT073 ATCC 700928
Format: cell-based
In short: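 MICs were read after 22 h at 35 °C, with bacteria added to a final OD600 of 0.0005. Compounds were serially diluted 2-fold over ten concentrations from a top of 64, 4, 0.5 or 0.13 μg/mL (protocols 1–4). Medium was cation-adjusted Mueller Hinton II broth plus 0.002% Tween-80, following CLSI M07-A8.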

[1] = E. coli CFT073 ATCC 700928, Mueller Hinton II cation adjusted Broth with 0.002% v/v Tween-80, 35° C. for 22 hours, lowest concentration that completely prevented bacterial growth

| Compound | MIC (ATCC 700928, 22 h) [µM] | MIC [1] [µM] |
| --- | --- | --- |
| CCCCCC[C@H]1OC[C@@H](C)NC(=O)[C@H]([C@H](C)O)NC(=O)[C@H](CN)NC(=O)[C@H](C2CCN(c3ccccc3)CC2)NC(=O)[C@H](CC(C)C)N(C)C(=O)[C@@H]1C [Example 148, (3R,6S,9S,12S,15S,18R,19R)-9-(Aminomethyl)-19-hexyl-6-((S)-1-hydroxyethyl)-15-isobutyl-3,16,18-trimethyl-12-(1-phenylpiperidin-4-yl)-1-oxa-4,7,10,13,16-pentaazacyclononadecane-5,8,11,14,17-pentaone] | 8.8 (≈ 6.67 µg/mL) | – |
| CCCCCC[C@H]1OC[C@@H](C)NC(=O)[C@H](CO[C@H]2C[C@H](CN)C2)NC(=O)[C@H](CN)NC(=O)[C@H](C2CCCCC2)NC(=O)[C@H](CC(C)C)N(C)C(=O)[C@@H]1C [Example 149, (3R,6S,9S,12S,15S,18R,19R)-9-(Aminomethyl)-6-(((1r,3,S)-3-(aminomethyl)cyclobutoxy)methyl)-12-cyclohexyl-19-hexyl-15-isobutyl-3,16,18-trimethyl-1-oxa-4,7,10,13,16-pentaazacyclononadecane-5,8,11,14,17-pentaone] (cyclo([Chg][Dap]S(X8)[X2][NMeL])) | 8.8 (≈ 6.6 µg/mL) | – |
| CCCCCC[C@H]1C(=O)N(C)[C@@H](CCC)C(=O)N[C@@H](C2CCCCC2)C(=O)N[C@@H](CN)C(=O)N[C@@H]([C@H](C)O)C(=O)N[C@H](C)CO[C@@H]1C [Example 150, (3R,6S,9S,12S,15S,18R,19R)-9-(Aminomethyl)-12-cyclohexyl-18-hexyl-6-((S)-1-hydroxyethyl)-3,16,19-trimethyl-15-propyl-1-oxa-4,7,10,13,16-pentaazacyclononadecane-5,8,11,14,17-pentaone] (cyclo([Chg][Dap][aThr][X1][NMeNva])) | 25 (≈ 16.7 µg/mL) | – |
| CCCCCC[C@H]1OC[C@@H](C)NC(=O)[C@H](CN)NC(=O)[C@H](CN)NC(=O)[C@H](C2CCCCCC2)NC(=O)[C@H](CC(C)C)N(C)C(=O)[C@@H]1C [Example 151, (3R,6S,9S,12S,15S,18R,19R)-6,9-Bis(aminomethyl)-12-cycloheptyl-19-hexyl-15-isobutyl-3,16,18-trimethyl-1-oxa-4,7,10,13,16-pentazacyclononadecane-5,8,11,14,17-pentone] (cyclo([Dap][Dap][X2][NMeL][Gly(cHept)])) | 6.3 (≈ 4.28 µg/mL) | – |
| CCCCCC[C@H]1OC[C@@H](C)NC(=O)[C@H](COCCCCN)NC(=O)[C@H](CN)NC(=O)[C@H](C2CCCCCC2)NC(=O)[C@H](CCC)N(C)C(=O)[C@@H]1C [Example 152, (3R,6S,9S,12S,15S,18R,19R)-6-((4-Aminobutoxy)methyl)-9-(aminomethyl)-12-cycloheptyl-19-hexyl-3,16,18-trimethyl-15-propyl-1-oxa-4,7,10,13,16-pentaazacyclononadecane-5,8,11,14,17-pentaone] (cyclo([Dap]S(X10)[X2][NMeNva][Gly(cHept)])) | 6.3 (≈ 4.65 µg/mL) | – |
| CCCCCC(C)[C@H]1OC[C@@H](C)NC(=O)[C@H]([C@H](C)O)NC(=O)[C@H](CN)NC(=O)[C@H](C2CCCCC2)NC(=O)[C@H](CC(C)C)N(C)C(=O)C1C (stereo partly drawn) [Example 153, (3R,6S,9S,12S,15S,18R,19R)-9-(Aminomethyl)-12-cyclohexyl-19-(heptan-2-yl)-6-((S)-1-hydroxyethyl)-15-isobutyl-3,16,18-trimethyl-1-oxa-4,7,10,13,16-pentaazacyclononadecane-5,8,11,14,17-pentaone] (cyclo([Chg][Dap][aThr][X9][NMeL])) | 1.6 (≈ 1.11 µg/mL) | – |
| CCCCCC[C@H]1OC[C@@H](C)NC(=O)[C@H](COC[C@H](F)CN)NC(=O)[C@H](CN)NC(=O)[C@H](C2CCCCC2)NC(=O)[C@H](CC(C)C)N(C)C(=O)[C@@H]1C [Example 154, (3R,6S,9S,12S,15S,18R,19R)-6-(((R)-3-Amino-2-fluoropropoxy)methyl)-9-(aminomethyl)-12-cyclohexyl-19-hexyl-15-isobutyl-3,16,18-trimethyl-1-oxa-4,7,10,13,16-pentaazacyclononadecane-5,8,11,14,17-pentaone] (cyclo([Chg][Dap]S(X3)[X2][NMeL])) | – | 12 (≈ 8.9 µg/mL) |
| CCC[C@H]1C(=O)N[C@@H](C2CCCCC2)C(=O)N[C@@H](CN)C(=O)N[C@@H]([C@H](C)O)C(=O)N[C@H](C)CO[C@H](CC2CC3(CCC3)C2)[C@@H](C)C(=O)N1C [Example 156, (3R,6S,9S,12S,15S,18R,19R)-9-(Aminomethyl)-12-cyclohexyl-6-((S)-1-hydroxyethyl)-3,16,18-trimethyl-15-propyl-19-(spiro[3.3]heptan-2-ylmethyl)-1-oxa-4,7,10,13,16-pcntaazacyclononadecane-5,8,11,14,17-pentaone] (cyclo([Chg][Dap][aThr][X13][NMeNva])) | 2.2 (≈ 1.52 µg/mL) | – |
| CCC[C@H]1C(=O)N[C@@H](C2CCCCC2)C(=O)N[C@@H](CN)C(=O)N[C@@H](COCCCN)C(=O)N[C@H](C)CO[C@H](CC2CC3(CCC3)C2)[C@@H](C)C(=O)N1C [Example 157, (3R,6S,9S,12S,15S,18R,19R)-9-(Aminomethyl)-6-((3-aminopropoxy)methyl)-12-cyclohexyl-3,16,18-trimethyl-15-propyl-19-(spiro[3.3]heptan-2-ylmethyl)-1-oxa-4,7,10,13,16-pentaazacyclononadecane-5,8,11,14,17-pentaone] (cyclo([Chg][Dap]S(Propyl(3-NH2))[X13][NMeNva])) | 12 (≈ 8.81 µg/mL) | – |
| CCCCCC[C@H]1OC[C@@H](C)NC(=O)[C@H](COC[C@@H](F)CN)NC(=O)[C@H](CN)NC(=O)[C@H](C2CCCCC2)NC(=O)[C@H](CC(C)C)N(C)C(=O)[C@@H]1C [Example 158, (3R,6S,9S,12S,15S,18R,19R)-6-(((S)-3-Amino-2-fluoropropoxy)methyl)-9-(aminomethyl)-12-cyclohexyl-19-hexyl-15-isobutyl-3,16,18-trimethyl-1-oxa-4,7,10,13,16-pentaazacyclononadecane-5,8,11,14,17-pentaone] (cyclo([Chg][Dap]S(X24)[X2][NMeL])) | – | 12 (≈ 8.9 µg/mL) |
| CCC[C@H]1C(=O)N[C@@H](C2CCCCCC2)C(=O)N[C@@H](CN)C(=O)N[C@@H](COCCCN)C(=O)N[C@H](C)CO[C@H](CC2CC3(CCC3)C2)[C@@H](C)C(=O)N1C [Example 159, (3R,6S,9S,12S,15S,18R,19R)-9-(Aminomethyl)-6-((3-aminopropoxy)methyl)-12-cycloheptyl-3,16,18-trimethyl-15-propyl-19-(spiro[3.3]heptan-2-ylmethyl)-1-oxa-4,7,10,13,16-pentaazacyclononadecane-5,8,11,14,17-pentaone] (cyclo([Dap]S(Propyl(3-NH2))[X13][NMeNva][Gly(cHept)])) | 3.1 (≈ 2.32 µg/mL) | – |
| CCCCCC[C@H]1OC[C@@H](C)NC(=O)[C@H](CNCCN)NC(=O)[C@H](CN)NC(=O)[C@H](C2CCCCCC2)NC(=O)[C@H](CC(C)C)N(C)C(=O)[C@@H]1C [Example 161, (3R,6S,9S,12S,15S,18R,19R)-6-[(2-Aminoethylamino)methyl]-9-(aminomethyl)-12-cycloheptyl-19-hexyl-15-isobutyl-3,16,18-trimethyl-1-oxa-4,7,10,13,16-pentazacyclononadecane-5,8,11,14,17-pentone] | 6.3 (≈ 4.56 µg/mL) | – |
| CCCCCC[C@H]1OC(=O)CNC(=O)[C@H](C2CCC2)NC(=O)[C@H](CN)NC(=O)[C@H](C2CCCCC2)NC(=O)[C@H](CC(C)C)N(C)C(=O)[C@@H]1C [Example 162, (6S,9S,12S,15S,18R,19R)-9-(Aminomethyl)-6-cyclobutyl-12-cyclohexyl-19-hexyl-15-isobutyl-16,18-dimethyl-1-oxa-4,7,10,13,16-pentaazacyclononadecane-2,5,8,11,14,17-hexaone] | 3.1 (≈ 2.14 µg/mL) | – |
| CCC[C@H]1C(=O)N[C@@H](C2CCCCCC2)C(=O)N[C@@H](CN)C(=O)N[C@@H](COC2CCNCC2)C(=O)N[C@H](C)CO[C@H](CC2CC3(CCC3)C2)[C@@H](C)C(=O)N1C [Example 163, (3R,6S,9S,12S,15S,18R,19R)-9-(Aminomethyl)-12-cycloheptyl-3,16,18-trimethyl-6-((piperidin-4-yloxy)methyl)-15-propyl-19-(spiro[3.3]heptan-2-ylmethyl)-1-oxa-4,7,10,13,16-pentaazacyclononadecane-5,8,11,14,17-pentaone] (cyclo([Dap]S(X22)[X13][NMeNva][Gly(cHept)])) | 4.4 (≈ 3.41 µg/mL) | – |
| CCC[C@H]1C(=O)N[C@@H](C2CCCCCC2)C(=O)N[C@@H](CN)C(=O)N[C@@H](CO[C@H]2C[C@H](N)C2)C(=O)N[C@H](C)CO[C@H](CC2CC3(CCC3)C2)[C@@H](C)C(=O)N1C [Example 164, (3R,6S,9S,12S,15S,18R,19R)-6-(((1r,3S)-3-Aminocyclobutoxy)methyl)-9-(aminomethyl)-12-cycloheptyl-3,16,18-trimethyl-15-propyl-19-(spiro[3.3]heptan-2-ylmethyl)-1-oxa-4,7,10,13,16-pentaazacyclononadecane-5,8,11,14,17-pentaone] (cyclo([Dap]S(Cyclobutyl(trans-3-NH2))[X13][NMeNva][Gly(cHept)])) | 2.2 (≈ 1.67 µg/mL) | – |
| CCCCCC[C@H]1OC[C@@H](C)NC(=O)[C@H](COc2cccc(CN)c2)NC(=O)[C@H](CN)NC(=O)[C@H](C2CCCCC2)NC(=O)[C@H](CC(C)C)N(C)C(=O)[C@@H]1C [Example 167, (3R,6S,9S,12S,15S,18R,19R)-9-(Aminomethyl)-6-((3-(aminomethyl)phenoxy)methyl)-12-cyclohexyl-19-hexyl-15-isobutyl-3,16,18-trimethyl-1-oxa-4,7,10,13,16-pentaazacyclononadecane-5,8,11,14,17-pentaone] | 1.6 (≈ 1.24 µg/mL) | – |
| CCCCCC[C@H]1OC[C@@H](C)NC(=O)[C@H](CO[C@H]2C[C@H](CN)C2)NC(=O)[C@H](CN)NC(=O)[C@H](C2CCCCCC2)NC(=O)[C@H](CCC)N(C)C(=O)[C@@H]1C [Example 168, (3R,6S,9S,12S,15S,18R,19R)-9-(Aminomethyl)-6-(((1r,3S)-3-(aminomethyl)cyclobutoxy)methyl)-12-cycloheptyl-19-hexyl-3,16,18-trimethyl-15-propyl-1-oxa-4,7,10,13,16-pentaazacyclononadecane-5,8,11,14,17-pentaone] (cyclo([Dap]S(X8)[X2][NMeNva][Gly(cHept)])) | 3.1 (≈ 2.33 µg/mL) | – |
